{"source": "patent US9289411B2", "about": "“Anti-HCV agent” (NATIONAL UNIVERSITY CORPORATION OKAYAMA UNIVERSITY, priority 2011, dated 2016)", "key": {"[1]": {"system": "HCV-RNA replication in OR6 cells (HCV-O strain, HuH-7-derived)", "experiment": "microbe, parasite or virus in culture", "excerpt": "(§1) Assay systems using OR6 cells (HCV-O strain), 1B-4R cells (HCV-1B-4 strain), and AH1R cells (HCV-AH1R strain) as HuH-7 cell-derived full-length HCV-RNA-replicating cells, and ORL8 cells (HCV-O strain), ORL11 cells (HCV-O strain), 1B-4RL cells (HCV-1B-4 strain), and KAH5RL cells (HCV-KAH5 strain) as Li23 cell-derived full-length HCV-RNA-replicating cells were used for the quantitative analysis of anti-HCV activity and evaluation of a cytotoxic effect in the present invention. The three cell lines, i.e., the 1B-4R cells, the 1B-4RL cells, and the KAH5RL cells have been disclosed in WO 2010/026965 A1. The AH1R cells may be produced with reference to Mori K et al., BBRC, 371:104-109, 2008 and WO 2010/026965 A1. In addition, all the HCV strains belong to genotype 1b.\n(§2) As necessary, an increase or decrease in expression level of an HCV protein (core protein) was examined by a Western blot method.\n(§3) In the measurement of the renilla luciferase activity and the measurement by the WST-1 method, experiments were performed in three wells independent of each other, and their means and standard deviation were calculated.\nOR6 cells, which had been cultured in general medium for subculture, were plated onto a 24-well plate (2×10^4 cells in 1 mL of medium for […] cell line per well) and cultured. After 24 hours, N-89 was added so as to achieve concentrations of 20 μM, a 2-fold dilution series from 20 μM (10, 5, 2.5, 1.3, 0.63, and 0.31 μM), and 0, or N-251 was added so as to achieve concentrations of 10 μM, a 2-fold dilution series from 10 μM (5, 2.5, 1.3, 0.63, 0.31, and 0.16 μM), and 0. The renilla luciferase activities were measured 72 hours after the culture. N-89 and N-251 were diluted with DMSO.\n(§4) The anti-HCV activity of artemisinin was examined using OR6 cells and ORL8 cells and the EC50 values were calculated. An experimental scale and schedule are the same as those in Example 1.\n(§5) Artemisinin was added so as to achieve concentrations of 100 μM, a 2-fold dilution series from 100 μM (50, 25, 13, 6.3, 3.1, and 1.6 μM), and 0. The luciferase activities were measured 72 hours after the culture."}, "[2]": {"experiment": "Cytotoxic effect, WST-1 cell proliferation assay in OR6 cells", "conditions": "human", "excerpt": "as §1, §3\nAfter 24 hours, N-89 was added so as to achieve concentrations of 20 μM, a 2-fold dilution series from 20 μM (10, 5, 2.5, 1.3, 0.63, and 0.31 μM), and 0, or N-251 was added so as to achieve concentrations of 10 μM, a 2-fold dilution series from 10 μM (5, 2.5, 1.3, 0.63, 0.31, and 0.16 μM), and 0.\nThe cytotoxic effect of artemisinin was examined using OR6 and ORL8 cells and the CC50 values were calculated. […]"}, "[3]": {"system": "HCV-RNA replication in ORL8 cells (HCV-O strain, Li23-derived)", "experiment": "microbe, parasite or virus in culture", "excerpt": "as §1, §2, §3\nThe anti-HCV activities of N-89 and N-251 were examined using ORL8 cells and the EC50 values were calculated. An experimental scale and schedule are the same as those in Example 1.\nN-89 and N-251 were added so as to achieve concentrations of 5 μM, a 2-fold dilution series from 5 μM (2.5, 1.3, 0.63, 0.31, 0.16, and 0.08 μM), and 0. The luciferase activities were measured 72 hours after the culture.\nas §4, §5"}, "[4]": {"experiment": "Cytotoxic effect, WST-1 cell proliferation assay in ORL8 cells", "conditions": "human", "excerpt": "as §1, §3\nThe cytotoxic effects of N-89 and N-251 were examined using ORL8 cells and the CC50 values were calculated. An experimental scale and schedule are the same as those in Example 1.\nN-89 and N-251 were added so as to achieve concentrations of 5 μM, a 2-fold dilution series from 5 μM (2.5, 1.3, 0.63, 0.31, 0.16, and 0.08 μM), and 0. The WST-1 cell proliferation assay was performed 72 hours after the culture.\nThe cytotoxic effect of artemisinin was examined using OR6 and ORL8 cells and the CC50 values were calculated. An experimental scale and schedule are the same as those in Example 1. Artemisinin was added so as to achieve concentrations of 400 μM, a 2-fold dilution series from 400 μM (200, 100, 50, 25, and 13 μM), and 0. The WST-1 cell proliferation assay was performed 72 hours after the culture."}, "[5]": {"system": "HCV-RNA replication in ORL8 cells", "experiment": "Effect of antioxidant vitamin E on anti-HCV activity in ORL8 cells (luciferase activity)", "type": "cell-based, HCV genotype 1b", "conditions": "for canceling of the anti-HCV activity by vitamin E: vitamin E 10 μM", "experimental": "The effect of addition of vitamin E on the anti-HCV activity of N-89 was examined using ORL8 cells. An experimental scale and schedule are the same as those in Example 1.\nN-89 and vitamin E were simultaneously added so that the concentrations of N-89 and vitamin E were set to 0.5 μM and 10 μM, respectively. The luciferase activity was measured 72 hours after the culture.\nThe effect of addition of vitamin E on the anti-HCV activity of N-251 was examined using ORL8 cells. An experimental scale and schedule are the same as those in Example 1.\nN-251 and vitamin E were simultaneously added so that the concentrations of N-251 and vitamin E were set to 0.5 μM and 10 μM, respectively. The luciferase activity was measured 72 hours after the culture.\nThe effect of addition of vitamin E on the anti-HCV activity of artemisinin was examined using ORL8 cells. An experimental scale and schedule are the same as those in Example 1.\nArtemisinin and vitamin E were simultaneously added so that the concentrations of artemisinin and vitamin E were set to 100 μM and 10 μM, respectively. The luciferase activity was measured 72 hours after the culture."}, "[6]": {"system": "HuH-7-derived HCV-replicon-replicating cells", "conditions": "Paeshuyse J et al., BBRC 2006; cited from earlier work"}, "[7]": {"system": "HCV-RNA replication in ORL8 cells", "experiment": "Influence of oxidizing agents KNO3 and NaClO4 on anti-HCV activity in ORL8 cells", "type": "cell-based, HCV genotype 1b", "conditions": "10 μM, 72 hours", "experimental": "The effects of addition of KNO3 and NaClO4 on the anti-HCV activity of N-89 were examined using ORL8 cells.\nN-89 and KNO3 or NaClO4 were simultaneously added so that the concentrations of N-89 and KNO3 or NaClO4 were set to 0.5 μM and 10 μM, respectively. The luciferase activity was measured 72 hours after the culture."}}, "note": "Where “and” joins values, the source holds several entries; their conditions need not be identical. Identical values can stand only once.", "data": [{"molecule": "C[C@@H]1CC[C@H]2[C@@H](C)C(=O)O[C@@H]3O[C@@]4(C)CC[C@@H]1[C@]32OO4", "note": "[artemisinin, reference compound]", "values": [{"measurement": "EC50", "setting": "[1]; Hepatitis C virus, OR6, 72 h", "result": 81, "unit": "µM"}, {"measurement": "anti-HCV activity (judgement)", "setting": "[1]; OR6 and ORL8 cells", "result": "very weak anti-HCV activity"}, {"measurement": "SI (CC50/EC50)", "setting": "[1]; OR6 cells", "result": 5}, {"measurement": "CC50 at 72 h", "setting": "[2]", "result": 380, "unit": "µM"}, {"measurement": "EC50", "setting": "[3]; Hepatitis C virus, ORL8, 72 h", "result": 23, "unit": "µM"}, {"measurement": "SI (CC50/EC50)", "setting": "[3]; ORL8 cells", "result": 16}, {"measurement": "CC50 at 72 h", "setting": "[4]", "result": 368, "unit": "µM"}, {"measurement": "luciferase activity, artemisinin in combination with vitamin E", "setting": "[5]; 100 μM + vitamin E 10 μM, 72 hours", "result": 53, "unit": "%"}, {"measurement": "luciferase activity, artemisinin alone", "setting": "[5]; 100 μM, 72 hours", "result": 23, "unit": "%"}, {"measurement": "canceling of the anti-HCV activity by vitamin E", "setting": "[5]", "result": "not canceled"}, {"measurement": "anti-HCV activity", "setting": "[6]", "result": "weak"}]}, {"molecule": "O=[N+]([O-])[O-].[K+]", "note": "[KNO3]", "values": [{"measurement": "change in luciferase activity, oxidizing agent alone", "setting": "[7]", "result": "no change"}]}, {"molecule": "vitamin E [reference compound]", "values": [{"measurement": "luciferase activity, vitamin E alone", "setting": "[5]; vitamin E 10 μM alone, 72 hours", "result": "217% and 194%"}, {"measurement": "increase of luciferase activity, vitamin E alone", "setting": "[5]; vitamin E 10 μM alone, 72 hours (Comparative Example 2)", "result": "about 3 fold"}]}, {"molecule": "[Na+].[O-][Cl+3]([O-])([O-])[O-]", "note": "[NaClO4]", "values": [{"measurement": "change in luciferase activity, oxidizing agent alone", "setting": "[7]", "result": "no change"}]}, {"molecule": "CC(C)n1c(/C=C/C(O)CC(O)CC(=O)O)c(-c2ccc(F)cc2)c2ccccc21", "note": "(centres unmarked) [FLV, Fluvastatin, reference compound]", "values": [{"measurement": "CC50 at 72 h", "setting": "[4]", "result": 21, "unit": "µM"}]}, {"molecule": "IFN-α", "values": [{"measurement": "canceling of the anti-HCV activity by vitamin E", "setting": "[5]", "result": "slightly found"}]}]}
